Reference: PMC12163485 (Drug Metabolism and Disposition, 2025)
Where “and” joins values, the source holds several entries; their conditions need not be identical. Identical values can stand only once. Like-named read-outs stand apart in the source and are kept apart here.

Assays:
human OCTN1 (hOCTN1) = target: T1, human OCTN1 (hOCTN1) (Homo sapiens, UniProt Q9H015); assay: Uptake of the extended cocktail by HEK293 cells overexpressing hOCTN1; type: in vitro ADME; settings: Fig. 6
T1 construct: expressed in transfected cells
T1 sequence (Q9H015 1-551): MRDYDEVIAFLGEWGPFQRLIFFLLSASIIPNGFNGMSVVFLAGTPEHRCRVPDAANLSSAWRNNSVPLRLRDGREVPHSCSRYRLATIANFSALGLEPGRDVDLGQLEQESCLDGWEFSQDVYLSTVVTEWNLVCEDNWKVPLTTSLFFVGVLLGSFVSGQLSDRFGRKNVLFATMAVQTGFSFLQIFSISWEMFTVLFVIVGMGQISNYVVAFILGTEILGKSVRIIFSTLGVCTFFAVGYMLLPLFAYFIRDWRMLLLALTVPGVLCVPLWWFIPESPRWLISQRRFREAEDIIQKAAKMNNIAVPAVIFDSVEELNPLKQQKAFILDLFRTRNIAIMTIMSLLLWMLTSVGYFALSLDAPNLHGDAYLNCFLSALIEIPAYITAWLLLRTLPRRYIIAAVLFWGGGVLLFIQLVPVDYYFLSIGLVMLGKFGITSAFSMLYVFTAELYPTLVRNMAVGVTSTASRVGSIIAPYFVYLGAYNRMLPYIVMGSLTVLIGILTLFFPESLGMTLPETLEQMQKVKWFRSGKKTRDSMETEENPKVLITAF

human OCTN2 (hOCTN2) = target: T2, human OCTN2 (hOCTN2) (Homo sapiens, UniProt O76082); assay: Uptake of the extended cocktail by HEK293 cells overexpressing hOCTN2; type: in vitro ADME; settings: Fig. 6
T2 construct: expressed in transfected cells
T2 sequence (O76082 1-557): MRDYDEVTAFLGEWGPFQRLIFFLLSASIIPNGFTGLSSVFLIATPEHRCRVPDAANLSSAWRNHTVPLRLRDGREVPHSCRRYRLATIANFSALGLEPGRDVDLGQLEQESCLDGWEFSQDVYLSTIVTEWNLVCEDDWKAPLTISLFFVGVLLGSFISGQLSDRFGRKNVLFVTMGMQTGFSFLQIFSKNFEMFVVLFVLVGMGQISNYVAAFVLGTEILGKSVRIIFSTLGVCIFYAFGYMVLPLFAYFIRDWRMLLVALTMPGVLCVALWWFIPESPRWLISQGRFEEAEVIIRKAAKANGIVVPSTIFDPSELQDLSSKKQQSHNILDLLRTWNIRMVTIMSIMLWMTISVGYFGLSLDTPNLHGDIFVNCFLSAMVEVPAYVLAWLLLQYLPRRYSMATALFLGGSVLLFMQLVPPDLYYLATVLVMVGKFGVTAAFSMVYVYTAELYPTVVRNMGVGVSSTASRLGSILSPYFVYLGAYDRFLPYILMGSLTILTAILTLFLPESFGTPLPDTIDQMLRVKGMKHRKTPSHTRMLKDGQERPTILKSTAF

OCT1 [1] = settings: read-out: inhibitory potency for metformin uptake via OCT1; substrate metformin; ref Ahlin et al, 2011; Panfen et al, 2019; cited from earlier work
[2] = Pharmacokinetic parameters used for estimating the potential for DDIs; type: in vivo, human; settings: for Imax, portal: Iin,max=Imax+Fa×ka×D/Qh, Qh 97 L/h, Fa 1, Imax for fenoterol and ipratropium; for ka: first-order absorption rate constant, calculated manually from available pharmacokinetic parameters
Procedure: (§1) Ka was calculated manually based on available pharmacokinetic parameters.

human OCT1 (hOCT1) [3] = target: T3, human OCT1 (hOCT1) (Homo sapiens, UniProt O15245); assay: Inhibition of OCT1-mediated uptake of the cocktail substrates in HEK293 cells overexpressing human OCT1; settings: for IC50: human OCT1, mean ± SD
T3 sequence (O15245 1-554): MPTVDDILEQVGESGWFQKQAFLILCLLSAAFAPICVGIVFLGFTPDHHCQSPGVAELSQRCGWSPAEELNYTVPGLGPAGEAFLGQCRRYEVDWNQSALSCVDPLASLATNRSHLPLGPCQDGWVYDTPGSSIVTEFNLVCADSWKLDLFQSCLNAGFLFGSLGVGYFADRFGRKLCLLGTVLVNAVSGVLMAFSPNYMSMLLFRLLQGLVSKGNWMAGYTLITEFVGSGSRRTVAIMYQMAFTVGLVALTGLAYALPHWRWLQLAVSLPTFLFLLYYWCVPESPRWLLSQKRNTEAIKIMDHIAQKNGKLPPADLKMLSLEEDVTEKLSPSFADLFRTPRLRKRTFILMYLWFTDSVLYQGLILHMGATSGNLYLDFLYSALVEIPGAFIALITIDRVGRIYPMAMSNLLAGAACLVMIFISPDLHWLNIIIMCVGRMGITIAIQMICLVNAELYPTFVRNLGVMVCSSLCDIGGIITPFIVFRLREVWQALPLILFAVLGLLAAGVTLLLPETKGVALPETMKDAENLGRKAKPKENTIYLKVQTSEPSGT

mouse OCT1 [4] = target: T4, mouse OCT1 (Mus musculus, UniProt O08966)
T4 sequence (O08966 1-556): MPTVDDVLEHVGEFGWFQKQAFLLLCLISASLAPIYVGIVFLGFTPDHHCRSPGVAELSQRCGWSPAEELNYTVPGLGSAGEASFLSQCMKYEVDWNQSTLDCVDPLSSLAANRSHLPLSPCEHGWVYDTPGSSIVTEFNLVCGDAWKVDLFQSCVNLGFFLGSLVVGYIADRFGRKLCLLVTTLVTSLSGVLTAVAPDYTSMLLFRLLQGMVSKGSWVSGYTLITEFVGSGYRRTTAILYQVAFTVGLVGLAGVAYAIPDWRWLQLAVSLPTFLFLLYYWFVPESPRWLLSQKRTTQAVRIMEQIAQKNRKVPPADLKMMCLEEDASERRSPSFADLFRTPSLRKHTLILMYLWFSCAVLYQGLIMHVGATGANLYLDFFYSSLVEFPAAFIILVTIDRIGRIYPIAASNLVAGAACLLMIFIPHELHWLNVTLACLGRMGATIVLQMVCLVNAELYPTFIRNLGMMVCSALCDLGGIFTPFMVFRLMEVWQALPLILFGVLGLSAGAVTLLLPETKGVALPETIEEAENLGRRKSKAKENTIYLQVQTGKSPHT
Procedure: Therefore, the calculation method used for hepatic uptake transporters such as organic anion transporting polypeptide (OATP) 1B1 and OATP1B3 was also applied for OCT1.
as §1

[5] = cited from earlier work; for cmax = Imax: dose and route as in Supplemental Table 4, ref Hardman, 2018, fenoterol Tzvetkov et al; for cmax = Imax / fraction unbound: ipratropium Zhang et al, 2023; for fraction unbound: fraction unbound in plasma, ref Hardman, 2018, Lombardo et al (2018), fenoterol Tzvetkov et al; for tmax: p.o., ref Hardman, 2018
mouse OCT1 [6] = target: T4, mouse OCT1; assay: Uptake of the cocktail by HEK293 cells overexpressing mouse Oct1; settings: fold change to the negative control, n = 12
Procedure: (§2) Significance was calculated using Mann–Whitney U test. n = 5–8 independent experiments.

human OCT1 (hOCT1) [7] = target: T3, human OCT1 (hOCT1)
mOct1 = system: mOct1; parameters: method as in ref column References of Table 2 (Morse et al, 2020; Jensen et al, 2020; Meyer et al, 2022); settings: literature values; References of Table 2 (Morse et al, 2020; Jensen et al, 2020; Meyer et al, 2022); cited from earlier work
OCT1 [8] = target: T5, OCT1 (Homo sapiens, UniProt O15245); assay: DDI risk R calculated from IC50 at human OCT1; settings: R=1+fup×Iin,max/IC50, cutoff R ≥ 1.1
T5 sequence (O15245 1-554): T3 sequence (O15245 1-554)

OCT1 [9] = target: T5, OCT1; assay: Uptake of the cocktail by HEK293 cells overexpressing human OCT1
Procedure: as §2

human OCT2 (hOCT2) = target: T6, human OCT2 (hOCT2) (Homo sapiens, UniProt O15244); assay: Uptake of the extended cocktail by HEK293 cells overexpressing hOCT2; type: in vitro ADME; settings: Fig. 6
T6 construct: expressed in transfected cells
T6 sequence (O15244 1-555): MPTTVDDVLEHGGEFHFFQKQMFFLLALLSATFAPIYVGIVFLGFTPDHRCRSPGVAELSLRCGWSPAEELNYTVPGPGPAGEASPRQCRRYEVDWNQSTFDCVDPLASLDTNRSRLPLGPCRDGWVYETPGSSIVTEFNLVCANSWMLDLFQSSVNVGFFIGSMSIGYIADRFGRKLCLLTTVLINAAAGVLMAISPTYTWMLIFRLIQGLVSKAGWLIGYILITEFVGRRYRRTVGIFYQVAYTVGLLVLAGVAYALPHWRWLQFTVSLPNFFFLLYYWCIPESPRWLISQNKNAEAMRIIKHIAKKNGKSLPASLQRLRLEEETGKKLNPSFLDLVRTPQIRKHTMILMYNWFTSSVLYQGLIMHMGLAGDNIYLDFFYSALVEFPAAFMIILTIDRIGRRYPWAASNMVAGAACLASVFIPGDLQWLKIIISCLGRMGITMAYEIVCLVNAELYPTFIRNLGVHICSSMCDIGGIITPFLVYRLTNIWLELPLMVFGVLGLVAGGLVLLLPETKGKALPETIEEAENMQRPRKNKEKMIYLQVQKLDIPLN

human OCT1 (hOCT1) [10] = target: T3, human OCT1 (hOCT1); parameters: expressed in transfected cells; empty vector control pcDNA5; method as in ref column References of Table 2 (Tzvetkov et al, 2018; Morse et al, 2020; Jensen et al, 2020; Meyer et al, 2019, 2022; Wittern et al, 2024 and own unpublished data; Elsby et al, 2017); settings: literature values; References of Table 2 (Tzvetkov et al, 2018; Morse et al, 2020; Jensen et al, 2020; Meyer et al, 2019, 2022; Wittern et al, 2024 and own unpublished data; Elsby et al, 2017); cited from earlier work

C[N+](C)(C)C[C@H](O)CC(=O)[O-] [L-carnitine]
transport by OCTN1 (human OCTN1 (hOCTN1)): transported both L-carnitine and L-ergothioneine | transport by OCTN2 (human OCTN2 (hOCTN2)): transported only L-carnitine

C=C[C@H]1C[N@@]2CC[C@H]1C[C@@H]2[C@@H](O)c1ccnc2ccc(OC)cc12 [Quinidine, quinidine]
IC50 (OCT1 [1]): 7.7 µM | Imax, portal [2]: 6908 ng/mL | ka [2]: 1.36 h⁻¹ | zolmitriptan uptake inhibited more potently than sumatriptan uptake (human OCT1 (hOCT1) [3]): 2.9 fold | DDI risk R, victim drug trospium (mouse OCT1 [4]): 1.23 | cmax = Imax [5]: 1300 ng/mL | fraction unbound [5]: 0.13 | tmax [5]: 2.00 h

O=C(O[C@H]1C[C@H]2CC[C@@H](C1)[N+]21CCCC1)C(O)(c1ccccc1)c1ccccc1 [Trospium, trospium]
mouse Oct1 uptake [fold change to pcDNA5] (mouse OCT1 [6]): 26.9 fold change to pcDNA5 | IC50 (human OCT1 (hOCT1) [7]): 12.4 µM and 8.14 µM | Km (mOct1): 1.81 µM | DDI risk R, victim drug fenoterol (OCT1 [8]): 1.00 | DDI risk R, victim drug ipratropium (OCT1 [8]): 1.01 | DDI risk R, victim drug metformin (OCT1 [8]): 1.01 | DDI risk R, victim drug methylnaltrexone (OCT1 [8]): 1.01 | DDI risk R, victim drug salbutamol (OCT1 [8]): 1.01 | DDI risk R, victim drug sumatriptan (OCT1 [8]): 1.00 | DDI risk R, victim drug zolmitriptan (OCT1 [8]): 1.01 | Imax, portal [2]: 89.63 ng/mL | ka [2]: 0.273 h⁻¹ | k el ([2]; human, in vivo, po, read-out: ke (converted)): 1.94e-05 s⁻¹ | I max, portal, u ([2]; unbound maximum inhibitor concentration at the inlet of the liver): 0.08 µM | human OCT1 uptake [fold change to pcDNA5] (OCT1 [9]; cocktail, fold change to the negative control, n = 12): 28.6 fold change to pcDNA5 | transport by OCT1 (OCT1 [9]; extended cocktail, Fig. 6): transported only by OCT1 and OCT2 | transport by OCT2 (human OCT2 (hOCT2)): transported only by OCT1 and OCT2 | IC50 (human OCT1 (hOCT1) [3]; IC50 for inhibition of fenoterol uptake, substrate (victim) fenoterol 0.5 μM in cocktail): 15.8 ± 1.87 µM | IC50 (human OCT1 (hOCT1) [3]; IC50 for inhibition of ipratropium uptake, substrate (victim) ipratropium 0.5 μM in cocktail): 9.37 ± 0.83 µM | IC50 (human OCT1 (hOCT1) [3]; IC50 for inhibition of methylnaltrexone uptake, substrate (victim) methylnaltrexone 1 μM in cocktail): 14.7 ± 1.95 µM | IC50 (human OCT1 (hOCT1) [3]; IC50 for inhibition of sumatriptan uptake, substrate (victim) sumatriptan 0.5 μM in cocktail): 16.8 ± 2.03 µM | IC50 (human OCT1 (hOCT1) [3]; IC50 for inhibition of zolmitriptan uptake, substrate (victim) zolmitriptan 0.5 μM in cocktail): 10 ± 1.59 µM | Km (human OCT1 (hOCT1) [10]): 16.1 µM | cmax = Imax [5]: 5.20 ng/mL | fraction unbound [5]: 0.33 | tmax [5]: 6.7 h | t1/2 ([5]; ref Hardman, 2018, fenoterol Tzvetkov et al): 9.9 h
